Measurements published in ChEMBL document CHEMBL1201862, “PubChem BioAssay data set” (2004).
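96-well plates; 48 h exposure; 5 concentrations. Endpoints by linear interpolation between flanking doses. Not reached: highest tested concentration assigned. GI50: concentration for 50% inhibition of growth.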 Activity calls are given as the source filed them. No stated cut-off is given here; in the data, active = GI50 up to about 1.1 µM and inactive = higher.

Columns and labels:
Assay in all cases: DTP human tumour cell line panel, 48 h
[1] = test system: CAKI-1
[2] = test system: DU-145
[3] = test system: EKVX
[4] = test system: HCC 2998
[5] = test system: HCT-116
[6] = test system: IGROV-1
[7] = test system: KM12
[8] = test system: LOX IMVI
[9] = test system: MCF7
[10] = test system: NCI-H522
[11] = test system: SNB-19
[12] = test system: MDA-MB-435
[13] = test system: SN12C
[14] = test system: SW-620
[15] = test system: U-251
[16] = test system: RPMI-8226
[17] = test system: SK-MEL-2
[18] = test system: A498

Measured: GI50

CN(C)c1ccc(/C=N/CC2CCCN3CCCCC23)cc1 (configuration not stated)
inactive: [1] > 100 µM | [2] > 100 µM | [3] > 100 µM | [4] > 100 µM | [5] > 100 µM | [6] > 100 µM | [7] > 100 µM | [8] > 100 µM | [9] > 100 µM | [10] > 100 µM | [11] > 100 µM

CN(/N=C/C=N/N(C)C1=NCCCCN1)C1=NCCCCN1
inactive: [1] > 100 µM | [3] > 100 µM | [4] > 100 µM | [5] > 100 µM | [6] > 100 µM | [8] > 100 µM | [9] > 100 µM | [12] > 100 µM | [10] > 100 µM | [13] > 100 µM | [11] > 100 µM | [14] > 100 µM | [15] > 100 µM

COc1cc2c(cc1OCCCCCCCCCCN1C(=O)c3cccc4cccc(c34)C1=O)N=C[C@@H]1CCCN1C2=O
inactive: [1] 4.43 µM | [2] 13.2 µM | [3] 2.11 µM | [4] 11.1 µM | [5] 5.52 µM | [6] 1.59 µM | [7] 16.1 µM | [8] 2.14 µM | [9] 2.01 µM | [12] 4.25 µM | [10] 6.67 µM | [16] 1.82 µM | [17] 3.74 µM | [13] 4.42 µM | [11] 13.7 µM | [14] 4.34 µM | [15] 3.37 µM

COC(=O)CCC(=O)NC1c2cccc3cccc(c23)Cn2c(=O)n(C)c(=O)n21 (configuration not stated)
inactive: [1] > 100 µM | [2] > 100 µM | [3] > 100 µM | [4] > 100 µM | [5] > 100 µM | [6] > 100 µM | [7] > 100 µM | [8] > 100 µM | [9] > 100 µM | [12] > 100 µM | [10] > 100 µM | [16] > 100 µM | [17] > 100 µM | [13] > 100 µM | [11] > 100 µM | [14] > 100 µM | [15] > 100 µM

CS(=O)(=O)NC12CCC(c3ccccc31)c1ccccc12
inactive: [18] > 100 µM | [1] > 100 µM | [2] > 100 µM | [3] > 100 µM | [5] > 100 µM | [6] > 100 µM | [7] > 100 µM | [8] > 100 µM | [9] > 100 µM | [12] > 100 µM | [10] > 100 µM | [16] > 100 µM | [17] > 100 µM | [13] > 100 µM | [11] > 100 µM | [14] > 100 µM | [15] > 100 µM

CCOC(=O)Cn1c(=O)c2nc(SC)sc2n(-c2ccccc2)c1=O
inactive: [18] 22.4 µM | [3] > 100 µM | [4] > 100 µM | [5] > 100 µM | [6] > 100 µM | [7] > 100 µM | [9] > 100 µM | [16] > 100 µM | [17] > 100 µM | [13] > 100 µM | [11] > 100 µM | [14] > 100 µM | [15] > 100 µM

COC(=O)C(=O)C(C(=O)C(=O)Nc1cccc([N+](=O)[O-])c1)c1nc2ccc(Cl)cc2nc1O (configuration not stated)
inactive: [1] 95.7 µM | [2] > 100 µM | [3] 18.1 µM | [4] > 100 µM | [5] > 100 µM | [6] > 100 µM | [7] > 100 µM | [8] > 100 µM | [9] > 100 µM | [12] > 100 µM | [10] > 100 µM | [17] > 100 µM | [13] > 100 µM | [11] > 100 µM | [14] > 100 µM | [15] > 100 µM

CCOC(=O)NC(C(C(=O)OCC)C(=O)OCC)(C(F)(F)F)C(F)(F)F
inactive: [18] > 100 µM | [1] > 100 µM | [2] > 100 µM | [3] > 100 µM | [5] > 100 µM | [6] > 100 µM | [7] > 100 µM | [8] > 100 µM | [9] > 100 µM | [12] > 100 µM | [10] > 100 µM | [16] > 100 µM | [17] > 100 µM | [13] > 100 µM | [11] > 100 µM | [14] > 100 µM | [15] > 100 µM

CCOC(=O)c1nc2ccccc2nc1Oc1ccc(F)cc1
inactive: [18] > 100 µM | [2] > 100 µM | [3] > 100 µM | [5] > 100 µM | [6] > 100 µM | [7] > 100 µM | [8] > 100 µM | [9] > 100 µM | [12] > 100 µM | [16] > 100 µM | [17] > 100 µM | [13] > 100 µM | [11] > 100 µM | [14] > 100 µM | [15] 69.2 µM

COC(=O)CCc1ccc2c(c1)CC1(Cc3ccccc3C1)C2
inactive: [18] > 100 µM | [3] > 100 µM | [4] > 100 µM | [5] 95.1 µM | [6] > 100 µM | [7] > 100 µM | [8] > 100 µM | [9] > 100 µM | [12] > 100 µM | [10] 74 µM | [16] > 100 µM | [17] 14.3 µM | [13] > 100 µM | [15] > 100 µM

FC(F)(F)c1cnc(N/N=C(/c2ccccc2)c2ccccn2)c(Cl)c1
inactive: [1] 5.85 µM | [2] 6.64 µM | [3] 3.43 µM | [4] 5.92 µM | [5] 3.26 µM | [6] 2.83 µM | [7] 5.14 µM | [9] 2.44 µM | [12] 6.87 µM | [10] 1.9 µM | [16] 2.97 µM | [17] 8.18 µM | [13] 7.52 µM | [11] 9.33 µM | [14] 3.02 µM | [15] 4.9 µM

COc1ccc2oc(=O)c(-c3csc(-c4ccccc4)n3)cc2c1
inactive: [1] > 100 µM | [2] > 100 µM | [3] 41.4 µM | [4] 95.7 µM | [5] 35.6 µM | [6] 32.6 µM | [7] > 100 µM | [8] 54.8 µM | [9] 94.6 µM | [12] > 100 µM | [16] 87.3 µM | [17] > 100 µM | [11] 20.5 µM | [14] 57.7 µM | [15] 21.9 µM

COC(=O)C(Cc1c(-c2[nH]c3ccccc3c2CC(NC(C)=O)C(=O)OC)[nH]c2ccccc12)NC(C)=O (configuration not stated)
inactive: [18] > 100 µM | [1] > 100 µM | [2] > 100 µM | [3] > 100 µM | [5] > 100 µM | [6] > 100 µM | [7] > 100 µM | [8] > 100 µM | [12] > 100 µM | [10] 16.3 µM | [16] > 100 µM | [17] > 100 µM | [13] > 100 µM | [11] > 100 µM | [14] > 100 µM | [15] > 100 µM
